Measurements taken from publication PMC7756782, “Rational Design of Azastatin as a Potential ADC Payload with Reduced Bystander Killing” (Chemmedchem, 2020).
Counter-ions that a name gives are not always drawn. Non-standard residues stand in square brackets, D forms with d. Residues, ends and D or L forms follow the SMILES beside them. Dolaproine = CO[C@@H]([C@@H]1CCCN1)[C@@H](C)C(=O)O; Dil = CC[C@H](C)[C@H](NC)[C@@H](CC(=O)O)OC; NMeV = CN[C@H](C(=O)O)C(C)C

Legend:
[1] = test system: HepG2 cells; assay: cells; type: cell-based, human; conditions: FMCA, 72 h incubation, 37 °C, 384-well, 1000 cells/well, mean and 95 % confidence interval, three independent experiments
Protocol: (§1) Three fundamentally different cell lines were chosen for the assessment of cytotoxicity: HepG2 cells, which derive from a human hepatoblastoma; ^[43] HCT116 cells, a common model for the study of metastatic colorectal carcinoma;[ ^44 , ^45 ] and RPMI 8226 cells, which originate from multiple myeloma. ^[46]
(§2) The cells, upon overnight cultivation, were treated with MMAE (5), MMAF (6), azastatin‐OMe (7), N‐ethyl azastatin‐OMe (28), N‐Cbz azastatin‐OMe (27) or doxorubicin[ ^47 , ^48 ] at concentrations ranging from 100 μM to 10 pM and after 72 hours of incubation, the survival index relative to control was determined by The Fluorometric Microculture Cytotoxicity Assay (FMCA). ^[49] Based upon the concentration dependent proportion of surviving cells, the half maximal inhibitory concentration (IC50) of each compound was calculated (see Table 1).
(§3) MMAE and MMAF were purchased from Combi‐Blocks (US). Doxorubicin hydrochloride was obtained from Sigma‐Aldrich/Merck (Germany). HepG2 cells (human hepatocellular carcinoma cells, ATCC), were grown in Eagle's Minimum Essential Medium (ATCC). RPMI 8226 (multiple myeloma cells, ATCC) were grown in complete RPMI medium (ATCC). HCT116 cells (colon carcinoma cells, Anticancer Inc.) were cultured in McCoy′s 5 A Modified Medium (Sigma‐Aldrich). All media were supplemented with 10 % foetal bovine serum, penicillin/streptomycin (100 U/100 μg/mL) and 2 mM L‐glutamine. Cells were seeded in 384‐well assay plates at a density of 1000 cells/well. The cells were incubated over night at 37 °C and test compounds were added, followed incubation for an additional 72 h at 37 °C. The fraction of surviving cells was analysed by a fluorometric microculture cytotoxicity assay, based on hydrolysis of fluorescein diacetate to fluorescein by cells with intact plasma membranes, as recently described. ^[49] IC50‐values were calculated from three independent experiments (see SI, mean±SEM). All tested concentrations were assessed in multiple wells (n=2‐4) in each experiment. The IC50‐values were determined with nonlinear regression analysis using GraphPad Prism 8 Software Package (US).

[2] = test system: HepG2, HCT116 and RPMI 8226 cells; assay: FMCA cytotoxicity, span over all three tested cell lines; type: cell-based; conditions: 72 h; for IC50: lowest to highest mean IC50 in HepG2, HCT116, RPMI 8226, read-out: IC50 range over the three cell lines
Protocol: as §1, §2, §3

[3] = test system: HCT116 cells; assay: cells; type: cell-based; conditions: FMCA, 72 h incubation, 37 °C, 384-well, 1000 cells/well, mean and 95 % confidence interval, three independent experiments
Protocol: as §1, §2, §3

[4] = test system: RPMI 8226 cells; assay: cells; type: cell-based; conditions: FMCA, 72 h incubation, 37 °C, 384-well, 1000 cells/well, mean and 95 % confidence interval, three independent experiments
Protocol: as §1, §2, §3

IC50 ([1]; Homo sapiens, HepG2) | IC50 ([3]; Homo sapiens, HCT-116) | IC50 ([4]; Homo sapiens, RPMI-8226) | Compound | IC50 [1] | IC50 [2] | IC50 [3] | IC50 [4] | fold less potent than MMAE (5) in each of the cell lines ([2]; ratio of IC50 values)
– | – | – | CC[C@H](C)[C@@H]([C@@H](CC(=O)N1C[C@@H](N)C[C@H]1[C@H](OC)[C@@H](C)C(=O)N[C@@H](Cc1ccccc1)C(=O)OC)OC)N(C)C(=O)[C@@H](NC(=O)[C@H](C(C)C)N(C)C)C(C)C [Aza‐OMe, 7, Azastatin methyl ester] | 20 nM | 9.8 to 170 nM | 170 nM | 9.8 nM | –
– | – | – | CC[C@H](C)[C@@H]([C@@H](CC(=O)N1C[C@@H](NC(=O)OCc2ccccc2)C[C@H]1[C@H](OC)[C@@H](C)C(=O)N[C@@H](Cc1ccccc1)C(=O)OC)OC)N(C)C(=O)[C@@H](NC(=O)[C@H](C(C)C)N(C)C)C(C)C [Cbz‐Aza‐OMe, 27, Cbz‐azastatin methyl ester] | 0.13 nM | 0.13 to 3 nM | 3 nM | 0.15 nM | –
400 nM | 440 nM | 49 nM | COc1cccc2c1C(=O)c1c(O)c3c(c(O)c1C2=O)C[C@@](O)(C(=O)CO)C[C@@H]3O[C@H]1C[C@H](N)[C@H](O)[C@H](C)O1 [Doxorubicin, Doxorubicin hydrochloride, reference compound] | – | – | – | – | –
– | – | – | CC[C@H](C)[C@@H]([C@@H](CC(=O)N1CCC[C@H]1[C@H](OC)[C@@H](C)C(=O)N[C@@H](Cc1ccccc1)C(=O)O)OC)N(C)C(=O)[C@@H](NC(=O)[C@@H](NC)C(C)C)C(C)C [MMAF, 6, monomethylauristatin F, reference compound] (H-[NMeV]V[Dil][Dolaproine]F-OH) | – | – | – | – | more than 100 fold
– | – | – | CCN[C@H]1C[C@@H]([C@H](OC)[C@@H](C)C(=O)N[C@@H](Cc2ccccc2)C(=O)OC)N(C(=O)C[C@@H](OC)[C@H]([C@@H](C)CC)N(C)C(=O)[C@@H](NC(=O)[C@H](C(C)C)N(C)C)C(C)C)C1 [N‐Et Aza‐OMe, 28, N‐ethyl azastatin methyl ester] | 11 nM | 4.8 to 100 nM | 100 nM | 4.8 nM | –
